{
  "source": "patent US4521422A",
  "about": "“Aryl and heteroaryl[7-(aryl and heteroaryl)pyrazolo[1,5-a]pyrimidin-3-yl]methanones” (American Cyanamid Company, priority 1984, dated 1985)",
  "key": {"[1]": {"test_system": "Ethanol Induced Narcosis in Rats", "test": "Effects on the duration of ethanol induced narcosis in rats", "type": "in vivo", "conditions": "Rattus norvegicus; lowest dose causing significant (p≤0.05) increase in duration of narcosis; oral, 60 min before 3.2 g/kg i.p. ethanol; read-out: MED", "protocol": "The sedative-hypnotic properties of the novel compounds of the instant invention have been established by their effect on the duration of ethanol induced narcosis in rats as a measurement of sedation. Groups of at least 8 rats were administered graded oral doses of the test compounds or vehicle 60 minutes prior to intraperitoneal treatment with 3.2 g/kg ethanol. Rats were then observed continuously for 180 minutes for the incidence and duration of ethanol induced narcosis. […] The duration of narcosis was the total time the rat remained in a supine position. The MED [lowest dose necessary to cause a significant (p≤0.05, two-tailed Student's t test) increase in the duration of ethanol induced narcosis in rats] of representative compounds of this invention are shown in Table IV. Test compounds were dissolved or suspended in a 2% aqueous starch suspension containing 5% polyethyleneglycol 400 and a drop of Tween®80; ethanol (95%) was adjusted to final concentration (V:V) with 0.85% saline. All treatments were administered in a constant volume of 5 ml/kg."}, "[2]": {"test_system": "Locomotor Activity in Rats", "test": "Effects on locomotor activity in rats", "type": "in vivo", "conditions": "Rattus norvegicus, 1 h; dose causing 50% decrease in mean activity counts vs vehicle; oral, 60 min; read-out: MDD50", "protocol": "Groups of 6 rats were treated orally with vehicle (5 ml/kg) or graded doses of the test compounds. Sixty minutes later, individual rats were placed in Actophotometers and locomotor activity was measured for 5 minutes after a brief (30 sec.) habituation period. Motor Activity Counts (number of crossings of the photo cells) were recorded for each rat, and mean activity counts were calculated for each treatment group. The dose causing a 50% decrease in mean activity counts compared with the vehicle group (MDD50) was calculated from a linear regression equation."}, "[3]": {"test_system": "Ability of Rats to Remain on an Inclined Screen", "test": "Effect on ability of rats to remain on an inclined screen", "type": "in vivo", "conditions": "Rattus norvegicus, 65 min; dose necessary to cause 50% of animals to fall off; oral; 60° screen, 65 min after dosing", "protocol": "The first test measures the effect of representative compounds on the ability of rats to remain on an inclined screen. Groups of at least 6 rats were treated orally with graded doses of test compounds or vehicle and placed on a wire mesh screen (inclined at an angle of 60° from a horizontal level) 65 minutes later. The number of rats falling off the screen within 30 minutes was recorded. The ED50 (dose necessary to cause 50% of the animals tested to fall off) was calculated according to the linear arc-sine transformation method of Finney, D. J. Statistical Methods in Biological Assay, 2nd Ed., Hafner, N. Y., 1964, pp. 454 ff. Compounds were dissolved or suspended in a 2% aqueous starch suspension containing 5% polyethylene glycol 400 and a drop of polysorbate 80, and administered in a constant volume of 5 ml/kg."}, "[4]": {"test_system": "Nonconditioned Passive Avoidance in Rats", "test": "Nonconditioned passive avoidance (conflict) test in rats", "type": "in vivo, rat (Wistar)", "parameters": "key: Active: considered active if the number of shocks received by the test group is significantly higher than the control group by the Mann-Witney U test", "conditions": "dose 25.0 mg/kg, oral or i.p.", "protocol": "Another test which has been used to assess anti-anxiety effects is a nonconditioned passive avoidance procedure described by [J. R. Vogel, B. Beer and D. E. Clody, \"A Simple and Reliable Conflict Procedure for Testing Anti-Anxiety Agents\", Psychopharmacologia, 21, 1-7 (1971)]. A conflict situation is induced in rats by a modification of this method.\nGroups of 6 naive, Wistar strain rats, weighing 200-240 g each were deprived of water for 48 hours and food for 24 hours. The test compounds were administered in single or graded, oral or intraperitoneal doses, suspended in a 2% starch vehicle containing 0.5% v/v polyethylene glycol and one drop of polysorbate 80. Control animals received the vehicle alone. At 30 to 60 minutes each rat was placed in an individual plexiglass chamber. Water was available ad libitum from a tap located in the rear of the chamber. A 0.7 milliampere DC shocking current was established between the stainless steel grid floor and the tap. After 20 licks of non-shocked drinking, a shock was delivered for 2 seconds and then further shocks were delivered on a ratio of one shock for 2 seconds for every 20 licks. This was continued for a total of 3 minutes. The number of shocks taken by each rat during the 3 minute interval was recorded and compared to a control group. […]"}, "[5]": {"test_system": "Clonic Seizures Caused by Pentylenetetrazole in Rats", "test": "Protection against clonic seizures caused by pentylenetetrazole in rats", "type": "in vivo", "conditions": "Rattus norvegicus; dose 25.0 mg/kg, oral or i.p.; pentylenetetrazole 23 mg/kg i.v. at 30 or 60 min; read-out: % of Rats Protected", "procedure,_shortened": "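Rats (at least 4 per group) given single or graded oral or intraperitoneal doses in starch/PEG/Polysorbate 80 vehicle. After 30 or 60 min, pentylenetetrazole 23 mg/kg i.v. was given, a dose expected to induce clonic seizures in 99% of unprotected rats. Protection from convulsions was scored.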"}, "[6]": {"test_system": "Brain-Specific Receptors of Rats", "test": "Inhibition of the binding of 3H-benzodiazepine to brain-specific receptors of rats", "parameters": "species or system rat (Wistar)", "conditions": "3H-diazepam 1.5 nM or 3H-flunitrazepam 1.0 nM; rat cortex P2 fraction; test concentration not given"}},
  "data": [
    {"smiles": "O=C(c1ccccc1)c1cnn2c(-c3ccncc3)ccnc12", "note": "[phenyl[7-(4-pyridinyl)pyrazolo[1,5-a]pyrimidin-3-yl]methanone]", "values": [
      {"measurement": "minimal effective dose", "setting": "[1]", "value": 8, "unit": "mg/kg"},
      {"measurement": "ED50", "setting": "[2]", "value": 21.2, "unit": "mg/kg"},
      {"measurement": "ED50", "setting": "[3]", "value": 9.9, "unit": "mg/kg"},
      {"measurement": "Result (nonconditioned passive avoidance)", "setting": "[4]", "value": "Active"},
      {"measurement": "responders at 25 mg/kg", "setting": "[5]", "value": 100, "unit": "%"}
    ]},
    {"smiles": "O=C(c1ccccc1Cl)c1cnn2c(-c3cccnc3)ccnc12", "note": "[(2-chlorophenyl)[7-(3-pyridinyl)pyrazolo[1,5-a]pyrimidin-3-yl]methanone]", "values": [
      {"measurement": "% Inhibition", "setting": "[6]", "value": 24, "unit": "%"},
      {"measurement": "minimal effective dose", "setting": "[1]", "value": 4, "unit": "mg/kg"},
      {"measurement": "Result (nonconditioned passive avoidance)", "setting": "[4]", "value": "Active"},
      {"measurement": "responders at 25 mg/kg", "setting": "[5]", "value": 100, "unit": "%"}
    ]},
    {"smiles": "O=C(c1ccccc1)c1cnn2c(-c3cccnc3)ccnc12", "note": "[Phenyl[7-(3-pyridinyl)pyrazolo[1,5-a]pyrimidin-3-yl]methanone]", "values": [
      {"measurement": "% Inhibition", "setting": "[6]", "value": 45, "unit": "%"},
      {"measurement": "minimal effective dose", "setting": "[1]", "value": 16, "unit": "mg/kg"},
      {"measurement": "ED50", "setting": "[2]", "value": 51.4, "unit": "mg/kg"},
      {"measurement": "ED50", "setting": "[3]", "value": 68.5, "unit": "mg/kg"},
      {"measurement": "Result (nonconditioned passive avoidance)", "setting": "[4]", "value": "Active"},
      {"measurement": "responders at 25 mg/kg", "setting": "[5]", "value": 100, "unit": "%"}
    ]},
    {"smiles": "O=C(c1ccc(F)cc1)c1cnn2c(-c3ccncc3)ccnc12", "note": "[(4-Fluorophenyl)[7-(4-pyridinyl)pyrazolo[1,5-a]pyrimidin-3-yl]methanone]", "values": [
      {"measurement": "minimal effective dose", "setting": "[1]", "value": 6, "unit": "mg/kg"},
      {"measurement": "ED50", "setting": "[2]", "value": 48.9, "unit": "mg/kg"},
      {"measurement": "ED50", "setting": "[3]", "value": 98, "unit": "mg/kg"},
      {"measurement": "Result (nonconditioned passive avoidance)", "setting": "[4]", "value": "Active"},
      {"measurement": "responders at 25 mg/kg", "setting": "[5]", "value": 100, "unit": "%"}
    ]},
    {"smiles": "O=C(c1ccco1)c1cnn2c(-c3cccnc3)ccnc12", "note": "[2-Furanyl[7-(3-pyridinyl)pyrazolo[1,5-a]pyrimidin-3-yl]methanone]", "values": [
      {"measurement": "% Inhibition", "setting": "[6]", "value": 72, "unit": "%"},
      {"measurement": "minimal effective dose", "setting": "[1]", "value": 32, "unit": "mg/kg"},
      {"measurement": "ED50", "setting": "[2]", "value": 500, "unit": "mg/kg"},
      {"measurement": "ED50", "setting": "[3]", "value": 167, "unit": "mg/kg"},
      {"measurement": "Result (nonconditioned passive avoidance)", "setting": "[4]", "value": "Active"},
      {"measurement": "responders at 25 mg/kg", "setting": "[5]", "value": 100, "unit": "%"}
    ]}
  ]
}
